Consider 84 compounds from PubChem BioAssay AID1645865 (Buhrlage Lab, Dana-Farber Cancer Institute and Novartis …, 2021).

pIC50: −log10 of the molar value. The source made the active and inactive calls.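 How the source made its calls: active means maximal inhibition of the USP30 enzyme reaching 30% or more across the dose series; inactive means the rest.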

Ubiquitin carboxyl-terminal hydrolase 30 (Homo sapiens), sequence (Q70CQ3 whole entry, looked up): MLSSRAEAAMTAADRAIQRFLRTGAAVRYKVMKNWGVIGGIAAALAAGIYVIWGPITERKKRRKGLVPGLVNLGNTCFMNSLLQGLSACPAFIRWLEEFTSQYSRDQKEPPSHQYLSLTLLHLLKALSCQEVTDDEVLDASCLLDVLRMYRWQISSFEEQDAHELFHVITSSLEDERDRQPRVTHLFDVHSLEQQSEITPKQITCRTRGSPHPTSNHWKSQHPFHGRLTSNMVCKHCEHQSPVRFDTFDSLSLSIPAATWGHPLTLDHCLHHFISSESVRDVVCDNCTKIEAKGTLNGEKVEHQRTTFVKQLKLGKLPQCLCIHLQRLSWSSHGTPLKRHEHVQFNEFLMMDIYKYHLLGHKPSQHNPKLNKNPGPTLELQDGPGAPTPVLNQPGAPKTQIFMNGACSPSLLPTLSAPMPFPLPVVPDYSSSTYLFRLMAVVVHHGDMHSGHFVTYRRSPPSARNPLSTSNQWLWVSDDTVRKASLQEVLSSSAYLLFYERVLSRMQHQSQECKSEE

The experiment has as its target Ubiquitin carboxyl-terminal hydrolase 30 (Homo sapiens) (UniProt Q70CQ3). The experiment is described as follows: inhibitors of ubiquitin-specific protease 30 deubiquitylating enzyme, concentration dependence, in vitro biochemical, validation of primary hits (AID 1645865). Conditions: purified USP30, Ub-rhodamine cleavage, fluorescence, 2 h.
Usually IC50 stands for the concentration that inhibits the measured activity by half. In the case of `COc1ccc(Cl)cc1N1C(=O)[C@H]2[C@@H](C1=O)[C@]1(C(=O)Nc3c(C)cc(C)cc31)N1CCC[C@@H]21`, the IC50 is > 50 µM (inactive).
As for `Fc1ccc(Cc2nc(-c3ccc4nncn4c3)no2)cc1`, the IC50 was > 50 µM (inactive).
As a reminder, the pIC50 is the IC50 on a negative log10 scale, so that one unit is a factor of ten. As for `Cc1cc(=O)n(CC(=O)NCc2ccccc2F)c2c1c(C)nn2-c1ccccc1`, the pIC50 was 4.48.
On the same count and under the same terms, the same measure for `Nc1c(C(=O)NCc2ccc3c(c2)OCO3)nnn1Cc1ccc(Br)cc1F`: 5.63; for `CC1CC[C@]2(NC1)O[C@H]1C[C@H]3[C@@H]4CC[C@H]5C[C@@H](O[C@@H]6O[C@H](CO)[C@H](O[C@@H]7O[C@H](CO)[C@@H](O)[C@H](O[C@@H]8OC[C@@H](O)[C@H](O)[C@H]8O)[C@H]7O[C@@H]7O[C@H](CO)[C@@H](O)[C@H](O)[C@H]7O)[C@H](O)[C@H]6O)CC[C@]5(C)[C@H]4CC[C@]3(C)[C@H]1[C@@H]2C` (some centres undefined): 4.40.
Regarding `CCc1nc2c(NC(=O)Nc3cccc(C(=O)OC)c3)cccn2n1`, the IC50 was > 50 µM (inactive).
The same measure, in the same setting: in the case of `Cc1cccc(N2CCN(C(=O)c3nnn(-c4ccc(F)cc4)n3)CC2)c1` it was > 50 µM (inactive).
For `O=C(CCc1ccccc1)N(CC1CCCO1)c1nc2ccccc2s1` (centres undefined), the pIC50 was 4.43.
In the case of `COc1cc(-c2nc(C(N)=O)c3[nH]c(=O)n(-c4ccc(C)cc4)c3n2)cc(OC)c1OC`, the pIC50 is 5.67.
The same measure, in the same setting: in the case of `CCc1ccc2[nH]c3c(c(=O)c2c1)CN(CC(=O)NCc1ccc2c(c1)OCO2)CC3` it was 4.45.
For the compound `COc1ccc(OC)c(NC(=O)C2=C(C)Nc3ncnn3C2c2ccccc2OCc2ccc(C)cc2)c1` (centres undefined), the pIC50 was 4.76.
On to `CCOc1ccc(CCNC(=O)c2ccc3c(c2)N(CC)C(=O)c2ccccc2S3)cc1OCC`, for which the IC50 is > 50 µM (inactive).
Take `O=C(NCC1CC1)C1CCCN(c2ccc(-c3ccccc3)nn2)C1` (centres undefined): the IC50 was > 50 µM (inactive).
For the compound `Cc1c(C(=O)c2ccccc2)c2ccccn2c1CCc1ccccn1`, the IC50 is > 50 µM (inactive).
Same read-out and setting: in the case of `COc1cccc(/C=C/C(=O)Nc2ccc(N3CCOCC3)cc2)c1OC` it was > 50 µM (inactive).
In the case of `COc1ccccc1-c1nc2c3c(C)c(C)n(-c4ccc(Br)cn4)c3ncn2n1`, the pIC50 was 6.05.
With `CCOc1ccc(CC(=O)Nc2ccc(-c3cn4cccnc4n3)cc2)cc1`, the IC50 was > 50 µM (inactive).
For `Cc1ccc(CNC(=O)CCCn2c(=O)c3sccc3n(CC(=O)Nc3cc(Cl)ccc3C)c2=O)cc1`, the pIC50 is 5.67.
Same read-out and setting: the same measure for `O=C(Nc1ccccc1)C1CCCN(C(=O)c2cc3ccccc3[nH]2)C1` (centres undefined): 4.60.
The same measure, in the same setting: in the case of `CC1=C[C@@H](C)CC[C@H]2O[C@@H](C3=C(O)C(=O)C(C)=C4O[C@](O)(C=C43)[C@@H](C)C[C@H](C)C1)[C@H](C)[C@@H](O)[C@H]2C` it was 4.65.
In the case of `CCOc1ccccc1C(=O)NCC(=O)OC(C(=O)c1c[nH]c2ccccc12)c1ccccc1` (centres undefined), the IC50 was > 50 µM (inactive).
For `COc1ccc(/C=C/C(=O)Nc2cccc(S(=O)(=O)Nc3ccccc3Cl)c2)c(OC)c1`, the pIC50 was 4.59.
On the same count and under the same terms, in the case of `CCn1cc2c(n1)c(=O)n(Cc1ccccc1)c(=O)n2CC(=O)Nc1ccc(OC)cc1` it was 5.59.
In the case of `COc1ccc(-n2c(=O)c(CCC(=O)O)nc3ccccc32)cc1`, the IC50 was > 50 µM (inactive).
As for `Cc1cccc(NC(=O)CSc2ccc(-n3cnc(-c4ccccc4)c3)nn2)c1`, the pIC50 was 5.71.
Still for that read-out and setting: the same measure for `Nc1nc(OCc2ccccc2)c2[nH]c(/C=C/c3cccs3)nc2n1`: 4.45.
In the case of `O=C(Cn1cnc(-c2noc(-c3ccncc3)n2)c1)N1CCN(c2ccccc2F)CC1`, the IC50 was > 50 µM (inactive).
For `Cc1nc(-c2ccc(-n3cc(C(=O)Nc4cccc(F)c4)c(C)n3)cc2)no1`, the pIC50 is 4.32.
For the compound `O=C(NCc1ccc(Br)cc1)c1ccc(-c2cccnc2)nc1`, the pIC50 is 4.52.
Still for that read-out and setting: in the case of `CCOC(=O)c1ccc(NC(=O)Cn2c(=O)n(CC(=O)NCCc3ccc(OC)c(OC)c3)c(=O)c3sccc32)cc1` it was 5.81; in that of `COc1ccc(C)cc1NC(=O)C1CC(=O)Nc2nc(SCc3ccccc3)nn21` (centres undefined), 4.80.
As for `Fc1cccc(-n2cc(-c3noc(-c4ccc[nH]4)n3)nn2)c1`, the IC50 was > 50 µM (inactive).
Same read-out and setting: in the case of `CCOc1ccccc1NC(=O)COc1cc(OC)ccc1C(=O)c1ccccc1` it was > 50 µM (inactive).
`CC(=O)Nc1cc(-c2cccc(O)c2)cn2c(-c3cnn(C)c3)cnc12`: the pIC50 was 5.54.
On the same count and under the same terms, in the case of `O=C(Nc1ccc(-c2cn3ccccc3n2)cc1)C1C=C2C=C(Br)C=CC2OC1=O` (centres undefined) it was 6.47.
Turning to `COc1ccc(N2CCN(Cc3nnnn3Cc3ccc4c(c3)OCO4)CC2)cc1`, the IC50 was > 50 µM (inactive).
`COc1cccc(C(=O)Nc2ccc(-n3cnnn3)cc2)c1`: the pIC50 is 4.61.
The same measure, in the same setting: the same measure for `O=C(COc1ccccc1-c1nnc(-c2ccccc2)o1)Nc1ccc(F)cc1F`: 5.67; for `Cc1ccc(-n2c(=O)[nH]c3c(C(N)=O)nc(-c4cccnc4)nc32)cc1`: 5.47.
Still for that read-out and setting: the same measure for `COc1ccccc1CNC(=O)CCCCn1c(=O)c2ccccc2n(Cc2ccccc2C#N)c1=O`: 4.82.
As for `COCCNC(=O)c1ccn(-c2ccc3ccc(-c4cnn(C)c4)cn23)n1`, the IC50 is > 50 µM (inactive).
Same read-out and setting: in the case of `Cc1nn(-c2ccc(Cl)cc2)c2[nH]c(=O)c(CNCC3CCCO3)cc12` (centres undefined) it was > 50 µM (inactive).
On to `O=C(OC1CSc2nc3ccccc3n2C1)c1ccc([N+](=O)[O-])o1` (centres undefined), for which the negative logarithm of the IC50 (pIC50) was 4.37.
With `Nc1c(-c2ccc(Cl)cc2)cnc2nc(Sc3ncc(C(F)(F)F)cc3Cl)nn12`, the IC50 is > 50 µM (inactive).
`Cn1c(-c2nnc(SCC(=O)Nc3ccccc3F)o2)cc2ccccc21`: the pIC50 was 4.86.
Still for that read-out and setting: in the case of `Cc1ccc(S(=O)(=O)N2CCC3(CC2)NC(=O)c2ccccc2N3)cc1C` it was 4.57.
`Cc1ccccc1Cc1nc(-c2ccc(=O)[nH]c2)no1`: the IC50 is > 50 µM (inactive).
In the case of `Cc1ccnc(NC(=O)c2ccn(COc3ccc(Cl)cc3)n2)c1`, the pIC50 is 4.64.
Still for that read-out and setting: in the case of `Cc1[nH]nc(NC(=O)C2COc3ccccc3O2)c1-c1ccccc1` (centres undefined) it was 4.39.
Take `CCN1C[C@@H]2C[C@]2(c2ccccc2OC)C(=O)c2ncccc21`: the IC50 was > 50 µM (inactive).
`CC(=O)C1=C(O)[C@]2(O)C(=O)c3c(c(C)c4ccc(C)c(O)c4c3O)C[C@H]2[C@@H](N)C1=O`: the pIC50 is 5.33.
For `CCn1c(Cn2cccn2)nc2cc(NC(=O)c3ccc(F)cc3)ccc21`, the IC50 is > 50 µM (inactive).
Still for that read-out and setting: in the case of `CCCc1nc2sc3c(NC4CCCCC4)ncnc3c2c2c1CCC2` it was > 50 µM (inactive).
`N#Cc1c(Cl)cccc1Oc1ccc(S(=O)(=O)N2CCC(O)CC2)cc1`: the pIC50 was 4.71.
Same read-out and setting: the same measure for `O=C(COC(=O)c1ccc2[nH]c3c(c2c1)CCCC3)Nc1ccc2c(c1)OCO2`: 4.42.
Take `CCC(=O)Nc1cccnc1-c1ccc(C(=O)Nc2cccc(OC)c2)cc1`: the IC50 is > 50 µM (inactive).
Regarding `CCOc1ccc2c(c1)c(=O)c(C(=O)c1ccccc1)cn2CC(=O)Nc1ccc2c(c1)OCCO2`, the pIC50 was 4.67.
Still for that read-out and setting: in the case of `CCCCCCCc1cc(O)cc(O)c1` it was 4.41.
Take `Cc1cc(SCc2ncon2)c(C)cc1Cl`: the IC50 was > 50 µM (inactive).
Same read-out and setting: in the case of `Cc1ccc(C(=O)Nc2cc3c4c(c2)CC(=O)N4CCC3)cc1C` it was > 50 µM (inactive).
Turning to `Cc1ccc2[nH]c3c(=O)n(CC4CCCO4)cnc3c2c1` (centres undefined), the pIC50 was 4.75.
Take `Cc1ccccc1Cn1ccc2ccn(Cc3cccnc3)c2c1=O`: the IC50 was > 50 µM (inactive).
Still for that read-out and setting: in the case of `O=c1[nH]cccc1NS(=O)(=O)c1ccc(F)cc1` it was > 50 µM (inactive).
As for `COc1ccc(/C=C/C(=O)Nc2c3c(nc4c2CCC4)CCCC3)cc1`, the pIC50 was 4.73.
In the case of `COc1ccc(CCNC(=O)c2cc3ccccc3s2)cc1OC`, the IC50 was > 50 µM (inactive).
As to `Cc1ccccc1NC(=O)Cn1c(N2CCOCC2)nc2cc(C)n(C)c2c1=O`, the pIC50 was 4.75.
Regarding `CCc1cc(C(=O)c2ccc(OC)cc2)c(NC(=O)CN2CCCCC2)s1`, the pIC50 was 4.48.
The same measure, in the same setting: the same measure for `Cc1nc(-c2ccc(C(=O)NCc3ccc(F)cc3)cc2)cs1`: 4.42; for `CN(C)c1cc(-n2cnc(C(=O)NCc3ccccc3Cl)c2)ncn1`: 4.42.
Regarding `Cc1ccc2c(c1)c(=O)c(C(=O)c1ccccc1)cn2CC(=O)Nc1ccc2c(c1)OCCO2`, the pIC50 was 5.58.
Same read-out and setting: the same measure for `Fc1cc(F)c2[nH]cc(-c3nnnn3-c3ccc4ccccc4c3)c2c1`: 5.12.
`Cc1ccc(C)c(-n2c(C)cc(/C=C3/C(=N)N4C(c5ccc(F)cc5)=CSC4=NC3=O)c2C)c1`: the IC50 is > 50 µM (inactive).
For `COc1ccc(NC(=O)C2c3ccccc3C(=O)N(C3CCCC3)C2c2cccs2)cc1OC` (centres undefined), the pIC50 is 4.44.
`COc1cccc(NC(=O)Nc2ccc(NC(C)=O)cc2)c1`: the pIC50 is 4.75.
As to `O=c1c2c(ccn1Cc1cc(F)ccc1F)ccn2Cc1cccnc1`, the IC50 was > 50 µM (inactive).
Same read-out and setting: the same measure for `O=S(c1ccc2ccccc2c1)c1cnns1` (centres undefined): > 50 µM (inactive).
Consider `Cc1cc(=O)n(CC(=O)Nc2ccccc2C)c(Nc2ccc(F)cc2)n1`, for which the pIC50 was 4.95.
`O=C(NCc1ccc2c(c1)OCO2)c1nc(-c2ccccc2)n(-c2ccccc2)n1`: the IC50 was > 50 µM (inactive).
For the compound `CC1=C(c2ccc(F)cc2)S(=O)(=O)NC1=NCC(=O)Nc1ccc(F)cc1`, the pIC50 was 4.68.
In the case of `CO/C1=C\C(C)=C/[C@@H](C)[C@@H](O)[C@@H](C)C/C(C)=C/C=C/[C@H](OC)[C@@H]([C@@H](C)[C@@H](O)[C@H](C)[C@@]2(O)C[C@@H](OC(=O)/C=C/C(N)=O)[C@H](C)[C@@H](C(C)C)O2)OC1=O`, the IC50 was > 50 µM (inactive).
For the compound `O=C(COC(=O)c1n[nH]c2ccccc12)Nc1ccc(N2CCCCC2)cc1`, the pIC50 was 4.46.
As to `O=C(NCc1nc(-c2ccc3c(c2)[nH]c(=O)n3C2CCCC2)no1)c1ccccc1`, the IC50 was > 50 µM (inactive).
With `Cc1c(OCC(=O)NCC(=O)N2CCC3(O)CCCCC3C2)ccc2c3c(c(=O)oc12)CCCC3` (centres undefined), the pIC50 is 4.63.
The same measure, in the same setting: the same measure for `COc1ccc(-c2ccnc(-c3ccc(OCc4cccc(F)c4)cc3)n2)cc1`: 4.42.
